Test results taken from patent publication US20250382287A1, “PHARMACEUTICALLY ACCEPTABLE SALT AND CRYSTAL FORM OF NITROGEN-CONTAINING BRIDGE HETEROCYCLIC DERIVATIVE, AND METHOD FOR PREPARING SAME” (JIANGSU HENGRUI PHARMACEUTICALS CO., LTD., priority 2022, published 2025).

Key:
[1] = DVS (dynamic vapor sorption) hygroscopicity testing; assay type: physicochemical
Method: DVS refers to dynamic vapor sorption: Surface Measurement Systems instrinsic was adopted; the humidity started at 50%, the humidity range investigated was 0%-95%, and the humidity was increased in increments of 10%; the criterion was that each gradient mass change dM/dT is less than 0.002%, TMAX 360 min, two cycles.

[2] = Long-term/accelerated stability (sealed, 25° C./60% RH and 40° C./75% RH)
[3] = Influencing factor stability (open flasks, light, high temperature, high humidity, 30 days)
[4] = target: T1, Factor B enzyme (recombinant human complement factor B protein, as CVF:Bb complex) (Homo sapiens, UniProt P00751); details: biological evaluation in Application No. WO2022143845; cited from earlier work
T1 construct: host or cells: HD CHO-S cells, pcDNA3.4 vector

[5] = 25° C., 60% RH, sealed, 1 month
[6] = 25° C., 60% RH, sealed, 2 months
[7] = 25° C., 60% RH, sealed, 3 months
[8] = 25° C., 60% RH, sealed, 6 months
[9] = 25° C./60% RH and 40° C./75% RH, 6 months
[10] = 40° C., 75% RH, sealed, 1 month
[11] = 40° C., 75% RH, sealed, 2 months
[12] = 40° C., 75% RH, sealed, 3 months
[13] = 40° C., 75% RH, sealed, 6 months
[14] = Light exposure (4500 Lux), 5 days, open flask
[15] = Light exposure (4500 Lux), 10 days, open flask
[16] = Light exposure (4500 Lux), 30 days, open flask
[17] = light exposure (4500 Lux), 40° C. and 60° C., high humidity RH 75% and 92.5%, 30 days

T1 sequence (P00751 260-764 limits assumed): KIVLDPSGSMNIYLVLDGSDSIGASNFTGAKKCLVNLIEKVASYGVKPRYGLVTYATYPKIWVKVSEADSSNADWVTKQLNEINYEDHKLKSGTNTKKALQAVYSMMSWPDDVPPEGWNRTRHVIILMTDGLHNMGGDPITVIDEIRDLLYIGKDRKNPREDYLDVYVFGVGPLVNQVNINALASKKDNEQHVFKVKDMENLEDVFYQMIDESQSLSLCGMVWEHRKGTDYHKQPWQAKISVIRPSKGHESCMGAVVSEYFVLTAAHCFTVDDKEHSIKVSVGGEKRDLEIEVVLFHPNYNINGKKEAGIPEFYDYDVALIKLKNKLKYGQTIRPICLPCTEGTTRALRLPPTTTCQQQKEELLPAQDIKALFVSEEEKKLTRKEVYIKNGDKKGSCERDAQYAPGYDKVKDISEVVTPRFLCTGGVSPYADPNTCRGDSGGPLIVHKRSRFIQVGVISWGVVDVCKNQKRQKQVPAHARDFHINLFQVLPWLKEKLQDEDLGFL
T1 sequence (Q91132 23-649 partner limits assumed): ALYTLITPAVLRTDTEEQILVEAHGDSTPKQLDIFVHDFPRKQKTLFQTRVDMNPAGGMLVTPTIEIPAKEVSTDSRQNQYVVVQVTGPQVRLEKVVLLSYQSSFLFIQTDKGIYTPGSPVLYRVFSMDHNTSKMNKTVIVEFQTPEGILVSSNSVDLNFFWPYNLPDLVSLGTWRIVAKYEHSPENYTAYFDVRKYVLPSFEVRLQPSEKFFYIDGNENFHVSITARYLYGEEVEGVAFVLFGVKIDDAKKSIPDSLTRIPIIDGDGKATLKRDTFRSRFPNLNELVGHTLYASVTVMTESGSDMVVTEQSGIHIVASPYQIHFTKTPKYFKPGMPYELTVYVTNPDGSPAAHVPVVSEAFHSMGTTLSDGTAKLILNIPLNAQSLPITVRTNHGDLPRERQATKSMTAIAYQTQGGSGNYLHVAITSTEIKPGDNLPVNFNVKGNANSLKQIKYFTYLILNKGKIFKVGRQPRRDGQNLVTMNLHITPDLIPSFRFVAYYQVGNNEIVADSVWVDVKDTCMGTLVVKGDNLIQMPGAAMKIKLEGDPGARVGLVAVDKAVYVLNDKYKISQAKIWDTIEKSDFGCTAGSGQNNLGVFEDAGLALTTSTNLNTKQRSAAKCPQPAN
T1 sequence (Q91132 733-984 partner limits assumed): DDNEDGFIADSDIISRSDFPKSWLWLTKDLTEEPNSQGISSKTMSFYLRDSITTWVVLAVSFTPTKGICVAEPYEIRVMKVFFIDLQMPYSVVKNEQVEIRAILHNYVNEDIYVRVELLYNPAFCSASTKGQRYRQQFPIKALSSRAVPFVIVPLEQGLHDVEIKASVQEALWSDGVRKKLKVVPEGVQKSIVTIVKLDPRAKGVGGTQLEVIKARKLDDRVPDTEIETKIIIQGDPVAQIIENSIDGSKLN
T1 sequence (Q91132 1264-1642 partner limits assumed): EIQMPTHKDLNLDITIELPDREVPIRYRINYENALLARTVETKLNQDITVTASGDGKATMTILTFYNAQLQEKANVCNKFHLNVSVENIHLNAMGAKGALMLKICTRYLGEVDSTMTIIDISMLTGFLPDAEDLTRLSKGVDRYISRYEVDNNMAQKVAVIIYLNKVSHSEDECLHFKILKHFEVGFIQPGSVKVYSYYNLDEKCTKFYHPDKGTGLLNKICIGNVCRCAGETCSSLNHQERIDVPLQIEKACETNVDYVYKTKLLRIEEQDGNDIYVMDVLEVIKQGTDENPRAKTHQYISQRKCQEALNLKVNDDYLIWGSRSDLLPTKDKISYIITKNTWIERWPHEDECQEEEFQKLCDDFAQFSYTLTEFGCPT

With `CCO[C@H]1C[C@H]2CC[C@@](c3ccc(C(=O)O)cc3)(C1)N2Cc1c(OC)cc(C)c2[nH]ccc12.Cc1ccc(S(=O)(=O)O)cc1` [crystal form I of the p-toluenesulfonate, 4-((1S,3S,5R)-3-ethoxy-8-((5-methoxy-7-methyl-1H-indol-4-yl)methyl)-8-azabicyclo[3.2.1]octan-1-yl)benzoic acid-p-toluenesulfonate] the “hygroscopic weight gain under normal storage conditions” value ([1]; DVS, 25° C. and 60% RH) was “about 1.22%”, the “hygroscopic weight gain under accelerated experimental conditions” value ([1]; DVS, 70% RH) was “about 1.37%” and the “hygroscopic weight gain under extreme conditions” value ([1]; DVS, 90% RH) was “about 1.87%”. For the same compound, the “crystal form re-identification after DVS testing” value ([1]; XRPD after DVS) was “did not change”, the “Purity %” value [2, 5] was 100.0% and the Salt form [2, 5] was “No change”. The “Purity %” value [2, 6] was 100.0%, the Salt form [2, 6] was “No change” and the “Purity %” value [2, 7] was 100.0%. For the same compound, the Salt form [2, 7] was “No change”, the “Purity %” value [2, 8] was 100.0% and the Salt form [2, 8] was “No change”. The chemical stability [2, 9] was “relatively good”, the physical stability [2, 9] was “relatively good” and the “Purity %” value [2, 10] was 100.0%. For the same compound, the Salt form [2, 10] was “No change”, the “Purity %” value [2, 11] was 99.8% and the Salt form [2, 11] was “No change”. The “Purity %” value [2, 12] was 99.8%, the Salt form [2, 12] was “No change” and the “Purity %” value [2, 13] was 99.7%. For the same compound, the Salt form [2, 13] was “No change”, the “Purity %” value ([2]; Initial) was 100.0% and the Color and state ([3]; 40° C., 5 days, open flask) was “White solid”. For the same compound, the Purity % ([3]; 40° C., 5 days, open flask) was 99.8%, the Salt form ([3]; 40° C., 5 days, open flask) was “No change” and the Color and state ([3]; 40° C., 10 days, open flask) was “White solid”. For the same compound, the Purity % ([3]; 40° C., 10 days, open flask) was 99.7%, the Salt form ([3]; 40° C., 10 days, open flask) was “No change” and the Color and state ([3]; 40° C., 30 days, open flask) was “White solid”. For the same compound, the Purity % ([3]; 40° C., 30 days, open flask) was 99.5%, the Salt form ([3]; 40° C., 30 days, open flask) was “No change” and the Color and state ([3]; 60° C., 5 days, open flask) was “White solid”. The Purity % ([3]; 60° C., 5 days, open flask) was 99.8%, the Salt form ([3]; 60° C., 5 days, open flask) was “No change” and the Color and state ([3]; 60° C., 10 days, open flask) was “White solid”. For the same compound, the Purity % ([3]; 60° C., 10 days, open flask) was 99.8%, the Salt form ([3]; 60° C., 10 days, open flask) was “No change” and the Color and state ([3]; 60° C., 30 days, open flask) was “White solid”. For the same compound, the Purity % ([3]; 60° C., 30 days, open flask) was 99.7%, the Salt form ([3]; 60° C., 30 days, open flask) was “No change” and the Color and state ([3]; 75% RH, 5 days, open flask) was “White solid”. The Purity % ([3]; 75% RH, 5 days, open flask) was 99.9%, the Salt form ([3]; 75% RH, 5 days, open flask) was “No change” and the Color and state ([3]; 75% RH, 10 days, open flask) was “White solid”. For the same compound, the Purity % ([3]; 75% RH, 10 days, open flask) was 99.9%, the Salt form ([3]; 75% RH, 10 days, open flask) was “No change” and the Color and state ([3]; 75% RH, 30 days, open flask) was “White solid”. For the same compound, the Purity % ([3]; 75% RH, 30 days, open flask) was 99.9%, the Salt form ([3]; 75% RH, 30 days, open flask) was “No change” and the Color and state ([3]; 92.5% RH, 5 days, open flask) was “White solid”. The Purity % ([3]; 92.5% RH, 5 days, open flask) was 100.0%, the Salt form ([3]; 92.5% RH, 5 days, open flask) was “No change” and the Color and state ([3]; 92.5% RH, 10 days, open flask) was “White solid”. The Purity % ([3]; 92.5% RH, 10 days, open flask) was 100.0%, the Salt form ([3]; 92.5% RH, 10 days, open flask) was “No change” and the Color and state ([3]; 92.5% RH, 30 days, open flask) was “White solid”. For the same compound, the Purity % ([3]; 92.5% RH, 30 days, open flask) was 99.9%, the Salt form ([3]; 92.5% RH, 30 days, open flask) was “No change” and the Color and state ([3]; Initial, 0 days) was “White solid”. For the same compound, the Purity % ([3]; Initial, 0 days) was 100.0%, the Color and state [3, 14] was “White solid” and the Purity % [3, 14] was 99.9%. The Salt form [3, 14] was “No change”, the Color and state [3, 15] was “White solid” and the Purity % [3, 15] was 99.9%. The Salt form [3, 15] was “No change”, the Color and state [3, 16] was “White solid” and the Purity % [3, 16] was 99.7%. For the same compound, the Salt form [3, 16] was “No change”, the chemical stability [3, 17] was “good” and the physical stability [3, 17] was “good”.
In the case of `CCO[C@H]1C[C@H]2CC[C@@](c3ccc(C(=O)O)cc3)(C1)N2Cc1c(OC)cc(C)c2[nH]ccc12` [compound I, 4-((1S,3S,5R)-3-ethoxy-8-((5-methoxy-7-methyl-1H-indol-4-yl)methyl)-8-azabicyclo[3.2.1]octan-1-yl)benzoic acid], the “inhibitory effect on the enzyme activity of Factor B” value [4] is listed as “relatively good inhibitory effect”.
